In assay [1] the test system is Atoh1. Kind of assay: Atoh1 expression by quantitative RT-PCR in OC-1 cells. The format is cell-based, mouse. The note with it: OC-1 cells treated with HDAC inhibitors. How it is done:
Atoh1 levels were measured in vitro in OC-1 cells or spheres by quantitative RT-PCR. For RT-PCR. total RNA was extracted from OC-1 cells or spheres treated with RAPT, FGF2, or DART and RNAi with the RiNeasy Maxi Kit (Qiagen) according to the manufacturer's instructions. RNA was denatured at 65° C. for 5 min. For reverse transcription, ImProm II (Promega) was used with random hexamers. Reverse transcription conditions were 25° C. for 5 min followed by 42° C. for 60 min. Reactions were terminated at 70° C. for 15 min. c: ANAs were mixed with Platinum quantitative PCR Supermix ROX with UDG (Invitrogen) and primers for Atoh1, Pax2 or Sox2 (ABI) according to the manufacturer's instructions. Gene expression was measured relative to 18S RNA. Samples were analyzed in 96 well plates in triplicate by quantitative PCR (Applied Biosystems 7900HT) using the following conditions: initial denaturation at 95° C. for 2 min, denaturation at 95° C. for 40 s and annealing/extension at 60′ C for 35 s for 45 cycles.
To address whether interaction with DNA-binding co-factors influenced bound histones at the Atoh1 locus, drugs that block histone modifications were used.

Assay [2] deals with organ of Corti explants. Briefly: Hair cell number in organ of Corti explants from Atoh1-GFP mice. In kind it is cell-based, mouse. The note with it: for new hair cells in organ of Corti explants: P1-P2 explants, 48 h. An excerpt: In this example, modulation of Pax2 and Sox2 expression in the differentiating inner ear cells included reducing Sox2 expression levels while increasing Pax2 expression level. Sox2 expression was modulated using DAFT (Jeon et al., j. Neurosci., 31:8351-8358 (2011)). Pax2 expression was modulated using FGF2 (Adamska et al., Mech. Dev., 109:303-313 (2001); Mansukhani et al., J. Cell. Biol., 168:1065-1076 (2005)). DAPT was used to decrease Sox2 and FGF2 to activate Pax2 expression in inner ear stein cells (see FIG. 12A). 4th-5th generation spheres or OC explants (P1-P2) were plated in 4-well plates (Greiner) on round 10 mm glass coverslips coated with poly-L-lysine (Cultrex) and attachment took place overnight in 10% FBS/DMEM-high glucose (GIBCO). Attachment was ensured with microscopic inspection and the medium was changed to serum-free DMEM-high glucose/F12 (mixed 1:1, GIBCO) and N2 and B27 (Invitrogen). Spheres were differentiated for 3, 7 or 10 d. For treatment, either DAFT (2.5 μM) or FGF (20 ng/ml) or control medium containing only DMSO (0.1%) were applied for 7d on spheres and 48 h on OC explants. Cells were harvested and further analyzed by immunohistochemistry. Axiovision 4.3 was used for data acquisition and the number of cells was quantified with Metamorph software. Cell counts were expressed as mean±standard deviation. An average of 1,000 cells were counted for spheres or 100 μm for OC explants. Origin software was used for statistical evaluation. Cell detection techniques are described in the Examples above.
Samples were obtained and detected using methods described above. Organ of Corti explants (P1-P2) from Atoh1-GFP mice were contacted with DAPT, FGF2, or a combination of both for 48 h. Hair cell number was then assessed.

Take `CC(/C=C/C(=O)NO)=C\[C@@H](C)C(=O)c1ccc(N(C)C)cc1` [TSA, Trichostatin A]: the “expression of Atoh1, qRT-PCR relative to 18S RNA” value in assay [1] is “increased expression of Atoh1”.
On the same count and under the same terms, the result for `CCCC(CCC)C(=O)O` [VPA, valproic acid] reads “increased expression of Atoh1”.
Take “FGF2: growth factor used to activate Pax2 expression in inner ear stem cells; 20 ng/ml”: the “new hair cells in organ of Corti explants” value in assay [2] is recorded as “additional outer hair cells were seen in the apex”.
On to `C[C@H](NC(=O)Cc1cc(F)cc(F)c1)C(=O)N[C@H](C(=O)OC(C)(C)C)c1ccccc1` [DAPT], for which the “new hair cells in organ of Corti explants” value in assay [2] is reported as “additional outer hair cells were seen in the apex”. In addition, in assay [2] (postnatal explants, DAPT with control siRNA), the “numbers of hair cells” value is reported as “Increased numbers of hair cells”.

Source of the values: patent US12427128B2, “Sensorineural hair cell differentiation” (Massachusetts Eye and Ear Infirmary, priority 2014, dated 2025).
